Values quoted from earlier work as cited in US20070244041A1, “Peptide Yy Analogues” (Reoscience A/S, priority 2004, published 2007).
No end group written: not given here.

Experiments:
vagal motor neurons = details: applied onto vagal motor neurons

Substance | selectivity for Y2 over Y1 receptors (Y2 over Y1 receptors) | vagal motor neurons activated (vagal motor neurons) | vagal motor neurons with inhibited firing rate (vagal motor neurons)
NPY3-36: truncated neuropeptide Y with high selectivity for Y2 over Y1 receptors | high selectivity | – | –
PYY13-36: truncated PYY, a Y2 selective agonist (SPEELNRYYASLRHYLNLVTRQRY; ends and bridges not checked; UniProt P10082 41-64, looked up, fragment) | – | approximately 5% | approximately 50%
